Patent US20210122730A1, “GLUCOCORTICOID RECEPTOR MODULATORS” (ORIC Pharmaceuticals, Inc., priority 2017, published 2021)

Molecular target: T1, GR (Homo sapiens, UniProt P04150)
T1 construct: expressed in transfected cells; host or cells: CHO-K1
T1 sequence (P04150 1-777): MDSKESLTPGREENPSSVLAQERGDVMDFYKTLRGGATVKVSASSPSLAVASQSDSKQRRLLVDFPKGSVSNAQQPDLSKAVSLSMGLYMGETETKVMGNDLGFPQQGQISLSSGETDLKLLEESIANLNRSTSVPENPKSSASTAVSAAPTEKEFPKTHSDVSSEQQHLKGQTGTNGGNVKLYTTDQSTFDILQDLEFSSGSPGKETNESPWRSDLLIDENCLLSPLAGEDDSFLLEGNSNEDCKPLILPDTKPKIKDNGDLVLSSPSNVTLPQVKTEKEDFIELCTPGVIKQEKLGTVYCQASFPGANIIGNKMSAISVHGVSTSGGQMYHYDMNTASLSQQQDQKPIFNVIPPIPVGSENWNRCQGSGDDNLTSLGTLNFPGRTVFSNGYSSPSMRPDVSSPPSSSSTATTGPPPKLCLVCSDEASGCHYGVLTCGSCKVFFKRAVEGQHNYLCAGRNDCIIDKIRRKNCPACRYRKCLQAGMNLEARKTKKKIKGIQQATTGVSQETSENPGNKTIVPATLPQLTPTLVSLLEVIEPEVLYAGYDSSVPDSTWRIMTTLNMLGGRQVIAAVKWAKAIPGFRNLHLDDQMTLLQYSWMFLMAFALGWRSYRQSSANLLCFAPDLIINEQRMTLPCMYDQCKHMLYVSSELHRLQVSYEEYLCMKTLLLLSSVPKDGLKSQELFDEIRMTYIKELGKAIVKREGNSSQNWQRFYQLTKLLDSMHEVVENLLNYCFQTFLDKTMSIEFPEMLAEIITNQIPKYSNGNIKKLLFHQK
Experiment: In Vitro GR Luciferase Reporter Assay (antagonist mode, CHO-K1-GR-MMTV-Luc reporter cells)
Type: cell-based
Settings: antagonist assay with 10 nM Dexamethasone, 18-24 hours
Text: Example A: In Vitro GR Luciferase Reporter Assay
Cell Line: CHO-K1-GR-MMTV-Luc reporter cells
Culture Media: DMEM (with phenol red)+10% FBS
Assay Media: DMEM (without phenol red)+10% CSS
Culture CHO-K1I-GR-MMTV-Luc reporter cells in 15 cm plates in Culture Media at conditions less than 90% confluence.
Prepare 200×DMSO 1:5 serial dilutions of control and test compounds in 96-well non-sterile V bottom plate in DMSO, 8serial dilutions for each compound.
Prepare 5× Assay Media diluted compound serial dilutions in 96-well non-sterile V bottom plate: Add 97.5 uL/well of Assay Media into 96-well then add 2.5 ul of 200× concentration of compounds and mix well.
Seed cells for Antagonist Assay: […] CHO-K1-GR-MMTV-Luc reporter cells were seeded in a Corning 3707 flat clear bottom 384-well white TC plate in 20 ul of Assay Media containing 12.5 nM Dexamethasone (final concentration=10 nM).
Add compounds: 5 ul of assay media diluted compounds were added to appropriate wells and followed a quick spin (1000 rpm, 10 sec) to bring media and cells to the bottom of plate. The plates were covered with SealMate film to avoid evaporation and placed in 37° C. incubator for approximately 18-24 hours.
Read plates: Equilibrate appropriate amount of Promega OneGlo luciferase reagent to room temperature. Remove the plates from incubator and add 25 uL of OneGlo reagent/well by multiple channel pipette and read the plates with Tecan F500 luminometer within 3 minutes.
The ability of the compounds disclosed herein to inhibit GR activity was quantified and the respective IC50 value was determined. Table 1and Table 2provide the cellular IC50 values of compounds disclosed herein.

Row | IC50 [nM] | Compound
1 | ≤ 100 | O=C(c1ccccn1)[C@]12Cc3cnn(-c4ccc(F)cc4)c3C=C1CC[C@@H](S(=O)(=O)c1ccc(F)c(F)c1)C2 [Example 16, ((4aS,6R)-6-((3,4-difluorophenyl)sulfonyl)-1-(4-fluorophenyl)-1,4,5,6,7,8-hexahydro-4aH-benzo[f]indazol-4a-yl)(pyridin-2-yl)methanone]
2 | ≤ 100 | O=C(c1cc(C(F)(F)F)ccn1)[C@]12Cc3cnn(-c4ccc(F)cc4)c3C=C1CC[C@@H](S(=O)(=O)c1cccc(C(F)(F)F)c1)C2 [Example 17, ((4aS,6R)-1-(4-fluorophenyl)-6-((3-(trifluoromethyl)phenyl)sulfonyl)-1,4,5,6,7,8-hexahydro-4aH-benzo[f]indazol-4a-yl)(4-(trifluoromethyl)pyridin-2-yl)methanone]
3 | ≤ 100 | O=C(c1ccccn1)[C@]12Cc3cnn(-c4ccc(F)cc4)c3C=C1CC[C@@H](S(=O)(=O)c1cccc(C(F)(F)F)c1)C2 [Example 18, ((4aS,6R)-1-(4-fluorophenyl)-6-((3-(trifluoromethyl)phenyl)sulfonyl)-1,4,5,6,7,8-hexahydro-4aH-benzo[f]indazol-4a-yl)(pyridin-2-yl)methanone]
4 | ≤ 100 | COc1ccc(S(=O)(=O)[C@H]2CCC3=Cc4c(cnn4-c4ccc(F)cc4)C[C@]3(C(=O)c3ccccn3)C2)cc1 [Example 19, ((4aS,6S)-1-(4-fluorophenyl)-6-((4-methoxyphenyl)sulfonyl)-1,4,5,6,7,8-hexahydro-4aH-benzo[f]indazol-4a-yl)(pyridin-2-yl)methanone]
5 | ≤ 100 | O=C(c1ccccn1)[C@]12Cc3cnn(-c4ccc(F)cc4)c3C=C1CC[C@H](S(=O)(=O)c1ccccc1)C2 [Example 20, ((4aS,6S)-1-(4-fluorophenyl)-6-(phenylsulfonyl)-1,4,5,6,7,8-hexahydro-4aH-benzo[f]indazol-4a-yl)(pyridin-2-yl)methanone]
6 | ≤ 100 | O=C(c1ccccn1)[C@]12Cc3cnn(-c4ccc(F)cc4)c3C=C1CC[C@H](S(=O)(=O)Cc1ccccc1)C2 [Example 21, ((4aS,6S)-6-(benzylsulfonyl)-1-(4-fluorophenyl)-1,4,5,6,7,8-hexahydro-4aH-benzo[f]indazol-4a-yl)(pyridin-2-yl)methanone]
7 | ≤ 100 | O=C(c1ccccn1)[C@]12Cc3cnn(-c4ccc(F)cc4)c3C=C1CC[C@H](S(=O)(=O)c1ccc(F)c(F)c1)C2 [Example 22, ((4aS,6S)-6-((3,4-difluorophenyl)sulfonyl)-1-(4-fluorophenyl)-1,4,5,6,7,8-hexahydro-4aH-benzo[f]indazol-4a-yl)(pyridin-2-yl)methanone]
8 | ≤ 100 | Cc1ccnc(C(=O)[C@]23Cc4cnn(-c5ccc(F)cc5)c4C=C2CC[C@H](S(=O)(=O)c2cnn(C)c2)C3)c1 [Example 23, ((4aS,6S)-1-(4-fluorophenyl)-6-((1-methyl-1H-pyrazol-4-yl)sulfonyl)-1,4,5,6,7,8-hexahydro-4aH-benzo[f]indazol-4a-yl)(4-methylpyridin-2-yl)methanone]
9 | ≤ 100 | O=C(c1ccccn1)[C@]12Cc3cnn(-c4ccc(F)cc4)c3C=C1CC[C@@H](S(=O)(=O)c1ccccc1)C2 [Example 24, ((4aS,6R)-1-(4-fluorophenyl)-6-(phenylsulfonyl)-1,4,5,6,7,8-hexahydro-4aH-benzo[f]indazol-4a-yl)(pyridin-2-yl)methanone]
10 | ≤ 100 | O=C(c1ccccn1)[C@]12Cc3cnn(-c4ccc(F)cc4)c3C=C1CC[C@H](S(=O)(=O)c1ccc(F)cc1)C2 [Example 25, ((4aS,6S)-1-(4-fluorophenyl)-6-((4-fluorophenyl)sulfonyl)-1,4,5,6,7,8-hexahydro-4aH-benzo[f]indazol-4a-yl)(pyridin-2-yl)methanone]
11 | ≤ 100 | O=C(c1ccccn1)[C@]12Cc3cnn(-c4ccc(F)cc4)c3C=C1CC[C@H](S(=O)(=O)c1ccccn1)C2 [Example 26, ((4aS,6S)-1-(4-fluorophenyl)-6-(pyridin-2-ylsulfonyl)-1,4,5,6,7,8-hexahydro-4aH-benzo[f]indazol-4a-yl)(pyridin-2-yl)methanone]
12 | 100 to 1000 | O=C(c1cc(C(F)(F)F)ccn1)[C@]12Cc3cnn(-c4ccc(F)cc4)c3C=C1CC[C@@H](S(=O)(=O)c1cnns1)C2 [Example 27, ((4aS,6R)-6-((1,2,3-thiadiazol-5-yl)sulfonyl)-1-(4-fluorophenyl)-1,4,5,6,7,8-hexahydro-4aH-benzo[f]indazol-4a-yl)(4-(trifluoromethyl)pyridin-2-yl)methanone]
13 | ≤ 100 | O=C(c1ccccn1)[C@]12Cc3cnn(-c4ccc(F)cc4)c3C=C1CC[C@H](S(=O)(=O)c1cccc(C(F)(F)F)c1)C2 [Example 28, ((4aS,6S)-1-(4-fluorophenyl)-6-((3-(trifluoromethyl)phenyl)sulfonyl)-1,4,5,6,7,8-hexahydro-4aH-benzo[f]indazol-4a-yl)(pyridin-2-yl)methanone]
14 | 100 to 1000 | O=C(c1ccccn1)[C@]12Cc3cnn(-c4ccc(F)cc4)c3C=C1CC[C@@H](S(=O)(=O)c1ccc(F)cc1)C2 [Example 29, ((4aS,6R)-1-(4-fluorophenyl)-6-((4-fluorophenyl)sulfonyl)-1,4,5,6,7,8-hexahydro-4aH-benzo[f]indazol-4a-yl)(pyridin-2-yl)methanone]
15 | ≤ 100 | Cc1ccnc(C(=O)[C@]23Cc4cnn(-c5ccc(F)cc5)c4C=C2CC[C@H](S(=O)(=O)c2ccc(F)c(F)c2)C3)c1 [Example 30, ((4aS,6S)-6-((3,4-difluorophenyl)sulfonyl)-1-(4-fluorophenyl)-1,4,5,6,7,8-hexahydro-4aH-benzo[f]indazol-4a-yl)(4-methylpyridin-2-yl)methanone]
16 | ≤ 100 | Cc1ccc(C(=O)[C@]23Cc4cnn(-c5ccc(F)cc5)c4C=C2CC[C@H](S(=O)(=O)c2cccc(C(F)(F)F)c2)C3)nc1 [Example 31, ((4aS,6S)-1-(4-fluorophenyl)-6-((3-(trifluoromethyl)phenyl)sulfonyl)-1,4,5,6,7,8-hexahydro-4aH-benzo[f]indazol-4a-yl)(5-methylpyridin-2-yl)methanone]
17 | ≤ 100 | O=C(c1ccccn1)[C@]12Cc3cnn(-c4ccc(F)cc4)c3C=C1CC[C@H](S(=O)(=O)c1ccc(C(F)(F)F)cn1)C2 [Example 32, ((4aS,6S)-1-(4-fluorophenyl)-6-((5-(trifluoromethyl)pyridin-2-yl)sulfonyl)-1,4,5,6,7,8-hexahydro-4aH-benzo[f]indazol-4a-yl)(pyridin-2-yl)methanone]
18 | ≤ 100 | Cn1ncc(S(=O)(=O)[C@H]2CCC3=Cc4c(cnn4-c4ccc(F)cc4)C[C@]3(C(=O)c3cc(C(F)(F)F)ccn3)C2)n1 [Example 33, ((4aS,6S)-1-(4-fluorophenyl)-6-((2-methyl-2H-1,2,3-triazol-4-yl)sulfonyl)-1,4,5,6,7,8-hexahydro-4aH-benzo[f]indazol-4a-yl)(4-(trifluoromethyl)pyridin-2-yl)methanone]
19 | ≤ 100 | Cc1ccnc(C(=O)[C@]23Cc4cnn(-c5ccc(F)cc5)c4C=C2CC[C@H](S(=O)(=O)c2ccccn2)C3)c1 [Example 34, ((4aS,6S)-1-(4-fluorophenyl)-6-(pyridin-2-ylsulfonyl)-1,4,5,6,7,8-hexahydro-4aH-benzo[f]indazol-4a-yl)(4-methylpyridin-2-yl)methanone]
20 | ≤ 100 | O=C(c1ccccn1)[C@]12Cc3cnn(-c4ccc(F)cc4)c3C=C1CC[C@H](S(=O)(=O)C1CCCCC1)C2 [Example 35, ((4aS,6S)-6-(cyclohexylsulfonyl)-1-(4-fluorophenyl)-1,4,5,6,7,8-hexahydro-4aH-benzo[f]indazol-4a-yl)(pyridin-2-yl)methanone]
21 | ≤ 100 | Cc1ccnc(C(=O)[C@]23Cc4cnn(-c5ccc(F)cc5)c4C=C2CC[C@H](S(=O)(=O)c2ccccc2)C3)c1 [Example 36, ((4aS,6S)-1-(4-fluorophenyl)-6-(phenylsulfonyl)-1,4,5,6,7,8-hexahydro-4aH-benzo[f]indazol-4a-yl)(4-methylpyridin-2-yl)methanone]
